Experimental data: patent publication US20230233583A1, “USE OF PHYTOCANNABINOIDS FOR TREATING MULTIPLE MYELOMA” (priority 2020, published 2023)

What was measured:
[1] = system: MM cell lines U266, SKO and RPMI; assay: Annexin-V/PI staining, FACS analysis; format: cell-based, human; conditions: 48 hours, daily, CBG, CBN, CBDV 25 μM, CBC 75 μM
Method: Cell lines were treated for 48 hours with CBG (25 μM), CBN (25 μM), CBDV (25 μM) or CBC (75 μM) and the percentage of Annexin-V/PI positive cells were determined by FACS analysis. Values in overlays on each plot: upper left=necrotic cells; upper right=late death cells (both apoptotic and necrotic); lower left=live cells; and lower right=apoptotic cells. Data for each phytocannabinoid (lower plots in each Figure) expressed as percentage of PI positive cells with respect to vehicle treated cells (upper plots in each Figure).
Apoptosis assays and PI staining: Cell death was evaluated using the Annexin V-FITC Apoptosis detection Kit (eBioscience) followed by biparametric fluorescence-activated cell sorting (FACS) analysis. Cells, at a density of 4×10^4 cells/ml, were treated with CBG, CBC, CBN or CBDV for a maximum of 48 hours, with daily administration, and then incubated with Annexin V-FITC and propidium iodide (PI), following the protocol provided. The percentage of positive cells determined over 10,000 events was analysed on a FACScan cytofluorimeter using the CellQuest software.
Phytocannabinoids induce necrotic cell death in MM cell lines: To evaluate the cytotoxic mechanism induced by the phytocannabinoids, MM cell lines were treated daily with a cytotoxic dose for each phytocannabinoid (CBG: 25 μM; CBC 75 μM; CBN 25 μM; CBDV 25 μM) for 48 hours and then Annexin-V/PI cell positivity was evaluated by FACS analysis. The results evidenced that all of the phytocannabinoids induced necrotic cell death but had different efficacies (FIGS. 5-16). To confirm the necrotic cell death mechanism, MM cell lines were treated as above and DNA damage was evaluated by H2AX (a marker to examine the DNA damage produced and the subsequent repair of the DNA lesion) Western blot analysis and Comet assay (permits the analysis of DNA damage in single cell preparations). The result confirmed the DNA damage induced by the phytocannabinoid analysed. In particular, an increase of H2AX levels were observed by Western blot (FIGS. 17-20) and DNA damage by Comet assay that evidenced structures resembling comets in the treated cell lines (FIGS. 21-24).

RPMI = assay: Invasion assay in co-culture of HuOB and RPMI; format: cell-based, human; conditions: for effect on MM cell invasion, in words: RPMI in co-culture with HuOB, 24 hours
Method: (§1) Invasion assay: HuOB cells (1.5×10^4) were plated on the surface of Matrigel in a BioCoat™ Matrigel® Invasion Chamber, 8.0 μm PET Membrane (Coming®, cod. 354480) and incubated for two days. After, U266 and RPMI (2.5×10^4) were pre-stained with Calcein (1 μM) for two hours, then treated with CBG (12.5 μM), CBC (12.5 μM), CBN (12.5 μM) and CBDV (6.25 μM) and added in the chambers. MM cells with HuOB, untreated, were used as invasion positive control, MM cells without HuOB cells were used as negative control. After 24 hours, the number of MM cells that invaded the Matrigel were analysed via fluorescent microscope. Eight 10× sections images were counted for each chamber.
(§2) Invasion assay in co-culture of HuOB and MM cell lines: This study evaluated the effect of phytocannabinoids in reducing the invasion of MM cell lines toward HuOB. HuOB were plated on the surface of Matrigel in the BioCoat™ Matrigel® Invasion Chamber, 8.0 μm PET Membrane (Corning®, cod. 354480) and incubated for two days. After, U266 or RPMI were pre-stained with Calcein (10 μM) for two hours, then treated with CBG (25 μM), CBC (25 μM), CBN (25 μM) and CBDV (12.5 μM) and added in the chambers. MM cells with HuOB, untreated, were used as an invasion positive control, MM cells without HuOB cells were used as a negative control. After 24 hours, the number of MM cells that invaded the Matrigel were analysed via fluorescent microscope. Eight 10× sections images were counted for each chamber.

in vitro = format: cell-based, human; conditions: human, HuOB, daily, 72 hours, vs vehicle, read-out: % VIABILITY ± S.D.; for viability at 72 h, 12.5 μM: single phytocannabinoid 12.5 μM; for viability at 72 h, 25 μM: single phytocannabinoid 25 μM
Method: (§3) At least six replicates were used for each treatment.
(§4) Cell culture: The HuOB, an immortalized human osteoblast cell line derived from femoral head (INS-CI-1005, Inscreeex GmbH, Germany) was grown in HuOB Maintenance Medium (INS-ME-1006).
(§5) IC50 values, relative to daily administration, were obtained. The efficacy in reducing cell viability was generally highest for CBDV, followed by CBN, CBC and CBG.
(§6) Phytocannabinoid combinations in HuOB cell line viability: Before setting up the co-culture experiments with HuOB and MM cell lines, the less cytotoxic doses of phytocannabinoid combinations were evaluated in HuOB. […] The standard deviation of the data reported was <10%. […] Additionally, a triple combination with CBG, CBC and CBN at 12.5 μM for each phytocannabinoid, was performed (Table 9).

HuOB cell line = assay: cells; format: cell-based, human; conditions: for IC50: Homo sapiens, 72 h, read-out: IC50 (μM) ± S.D.
Method: as §3, §4, §5, §6

SKO = assay: MTT cytotoxicity assay in SKO MM cell line; conditions: for IC50: Homo sapiens, 72 h, read-out: IC50 (μM) ± S.D.; for % VIABILITY ± S.D.: SKO, daily, 72 hours, vs vehicle
Method: MTT cytotoxicity assay: MM cell lines (4×10^4 cells/ml) were seeded in 96-well plates, in a final volume of 100 μl/well. After 24 hours, CBG, CBC, CBN, CBDV alone and in combination or vehicle were added at different concentrations, for 72 hours. At least six replicates were used for each treatment. At the indicated time point, cell viability was assessed by adding 0.8 mg/ml of 3-[4,5-dimethylthiazol-2-yl]-2,5 diphenyl tetrazolium bromide (MTT) (Sigma-Aldrich) to the media. After 3 hours, the plates were centrifuged, the supernatant was removed, and the pellet was solubilized with 100 μl/well dimethyl sulfoxide (DMSO). The absorbance of the samples against a background control (medium alone) was measured at 570 nm using an ELISA reader microliter plate (BioTek™ Instruments, Winooski, Vt., USA).
Cells were treated with different doses of CBG, CBC, CBN and CBDV (up to 100 μM) and percentage of cell viability was evaluated by the MTT assay.
The cannabinoids were administered daily for 72 hours, as in previous experiments at the desired doses. Each combination was evaluated in six wells and in two separate experiments. MTT assay was used to analyze the cell cytotoxicity. The values in the tables are represented as % of cell viability compared to vehicle-treated cells.

U266 = assay: Invasion assay in co-culture of HuOB and U266; format: cell-based, human; conditions: 24 hours; for AVERAGE OF CELLS/square (MM cells that invaded the Matrigel): U266 + HuOB co-culture, CBG, CBC, CBN 12.5 μM, CBDV 6.25 μM or 25 μM and 12.5 μM, untreated U266 + HuOB 14.2 ± 0.9; for effect on MM cell invasion, in words: U266 in co-culture with HuOB
Method: as §1, §2

[2] = single phytocannabinoid 12.5 μM

SMILES | necrotic cell death (Annexin-V/PI positive cells), in words [1] | AVERAGE OF CELLS/square (MM cells that invaded the Matrigel) (RPMI) | viability at 72 h, 12.5 μM (in vitro) | viability at 72 h, 25 μM (in vitro) | IC50 (HuOB cell line) | IC50 (SKO) | % VIABILITY ± S.D. (SKO; [2]) | % VIABILITY ± S.D. (SKO; single phytocannabinoid 25 μM) | AVERAGE OF CELLS/square (MM cells that invaded the Matrigel) (U266) | cytotoxicity in HuOB cell line, in words (HuOB cell line; HuOB, 72 hours, daily administration) | effect on MM cell invasion, in words (RPMI) | effect on MM cell invasion, in words (U266)
CCCCCc1cc(O)c2c(c1)OC(C)(CCC=C(C)C)C=C2 (centres unmarked) [CBC, 2-methyl-2-(4-methylpent-3-enyl)-7-pentylchromen-5-ol] | induce necrosis | 29.3 ± 1.7 CELLS/square | 100 ± 8.3% | 99.8 ± 8.1% | 42.4 ± 1.05 µM | 69.7 ± 3.5 µM | 96.5 ± 6.7% | 94.3 ± 6.3% | 12.5 ± 1.1 CELLS/square |  |  | 
C=C(C)[C@@H]1CCC(C)=C[C@H]1c1c(O)cc(CCC)cc1O [CBDV, 2-[(1R,6R)-3-methyl-6-prop-1-en-2-ylcyclohex-2-en-1-yl]-5-propylbenzene-1,3-diol] | induce necrosis | 35.6 ± 2.4 CELLS/square | 72.1 ± 5.8% | 21.2 ± 1.1% | 14.3 ± 1 µM | 26.5 ± 2.1 µM | 82.1 ± 5.2% | 54.6 ± 4.4% | 11.2 ± 1.1 CELLS/square | high cytotoxicity |  | 
CCCCCc1cc(O)c(C/C=C(\C)CCC=C(C)C)c(O)c1 [CBG, 2-[(2E)-3,7-dimethylocta-2,6-dienyl]-5-pentylbenzene-1,3-diol] | induce necrosis | 1.6 ± 0.2 CELLS/square | 104 ± 8.2% | 96.4 ± 7.3% | 44.8 ± 1.04 µM | 35 ± 1.8 µM | 105.4 ± 4.4% | 84.6 ± 5.5% | 3.2 ± 0.2 CELLS/square |  | higher activity | higher activity
CCCCCc1cc(O)c2c(c1)OC(C)(C)c1ccc(C)cc1-2 [CBN, 6,6,9-trimethyl-3-pentylbenzo[c]chromen-1-ol] | induce necrosis | 3.3 ± 0.1 CELLS/square | 117 ± 7.7% | 81.7 ± 7.7% | 29 ± 3.07 µM | 28.5 ± 2.2 µM | 89.2 ± 5.9% | 60.6 ± 3.8% | 7.0 ± 0.2 CELLS/square |  | higher activity | higher activity
